Assay type in all cases: functional
What all share (conditions): 336 h

Experiment [1] concerns Mycobacterium tuberculosis. The experiment is described as follows: Antimycobacterial activity against isoniazid, rifampin, ethambutol, streptomycin, kanamycin and ofloxacin-resistant Mycobacterium tuberculosis after 14 days.
In experiment [2] the test system is Mycobacterium tuberculosis. Briefly: Antimycobacterial activity against isoniazid, rifampin, ethambutol, kanamycin and rifabutin-resistant Mycobacterium tuberculosis after 14 days.
Experiment [3] deals with Mycobacterium tuberculosis. Briefly: Antimycobacterial activity against isoniazid, rifampin, ethambutol, kanamycin and ofloxacin-resistant Mycobacterium tuberculosis after 14 days.

≈ marks a conversion by molar mass, not a printed value.

A word on the MIC99: it is the lowest concentration that inhibits either 99% of growth or 99% of the strains tested, depending on the study. In the case of `Cc1ccc2nc(C)c(C(=O)NCc3ccccc3)n2c1`, the MIC99 in experiment [1] is below 0.04 µM; in experiment [2], 2.3 µM (≈ 0.642 µg/mL); in experiment [3], below 0.04 µM.
On to `Cc1ccn2c(C(=O)NCc3ncc(C(F)(F)F)cc3Cl)c(C)nc2c1`, for which the MIC99 in experiment [1] amounted to 0.8 µM (≈ 0.306 µg/mL); in experiment [2] it was 13 µM (≈ 4.98 µg/mL).
`Cc1ccn2c(C(=O)NCc3ccc(Oc4ccc(F)cc4)cc3)c(C)nc2c1`: the MIC99 in experiment [1] was below 0.03 µM; in experiment [2], 0.8 µM (≈ 0.312 µg/mL); in experiment [3] it was below 0.03 µM.
With `O=[N+]([O-])c1cn2c(n1)OC[C@@H](OCc1ccc(OC(F)(F)F)cc1)C2` [PRETOMANID], the figures for the MIC99 in experiment [1], in experiment [2] and in experiment [3] were 0.9 µM (≈ 0.323 µg/mL), 0.5 µM (≈ 0.18 µg/mL) and 0.2 µM (≈ 0.0719 µg/mL), respectively.

Source of the values: ChEMBL document CHEMBL2407022, “Advancement of Imidazo[1,2-a]pyridines with Improved Pharmacokinetics and Nanomolar Activity Against Mycobacterium tuberculosis” (ACS Med Chem Lett, 2013).
